Test results from patent publication US11229683B2, “Hematopoietic growth factor proteins and analogs thereof and angiotensin converting enzyme inhibitors for treatment of radiation exposure” (priority 2015, dated 2022).
Where two headings read alike, the source gives them in different places. Marks after values point to notes of the source that are not given here.

Assays:
8.25 Gy-irradiated mice = settings: cited from earlier work
7.5 Gy-irradiated mice = settings: cited from earlier work
7 Gy-irradiated rats = settings: 7 Gy rats; captopril 0.3 g/L in drinking water from day −7 to Day 0; cited from earlier work
irradiated rats [1] = experiment: Rat 13 Gy leg-out TBI model, renal injury by blood urea nitrogen (BUN); type: in vivo; settings: surviving animals, TC day 1, Lisinopril Day 7 to Day 150
Procedure: Euthanized animals are classified as non-survivors.
Blood urea nitrogen (BUN) measurements were made as a separate measure of kidney damage in surviving animals on Days 90, 120 and 150 (Table 8). BUN measurements are a commonly used measure of kidney function, with higher BUN numbers indicating greater kidney damage. Normal rat BUN measurements for non-irradiated rats are in the 17-22 mg/dL range. Rats were euthanized if BUN measurements were at or above 120 mg/dL.

irradiated rats [2] = experiment: Rat 13 Gy leg-out TBI model, transthoracic echocardiography on day 50, Example 8; type: in vivo
Procedure: Non-irradiated rats (0 Gy) served as controls. On day 50, the rats were anesthetized with isoflurane (2%) and transthoracic echocardiography was performed. Measurements were obtained by an investigator who was blinded to the treatment groups. Animals were studied in the left lateral decubitus position and data was recorded with a Vivid 7 echocardiographic system (General Electric, Waukesha, Wis.).

lethally irradiated rats = settings: 13 Gy leg-out TBI, TC sc day 1, Lisinopril in drinking water Day 7 to Day 150, 12 rats/group
Excerpt: Female WAG/RijCmcr rats were irradiated with 13 Gy at 12 weeks of age when they weighed ˜150-170 gm. Briefly, animals were immobilized in a plexiglass jig to avoid anesthetic. One hind leg was shielded with a one-quarter inch thick lead block. Shielding one leg from radiation exposure is sufficient to prevent death from hematopoietic failure during the following 40 days. […] The x-ray system was operated at 320 kVp and 13 mAs with a half value layer of 1.4 mm Cu. During the irradiation, each rat was confined in a separate chamber in a plastic jig, which allowed irradiation of 2 rats simultaneously. The chambers were placed on a plane perpendicular to the beam direction with distance from source to the midline of rats to be set at 33.5 cm. Collimator jaws were used to define a radiation field large enough to cover both chambers with adequate margin (at least 2 cm). Irradiated rats were given supportive care between days 2 to 14 post-TBI to mitigate acute gastrointestinal injury. This supportive care consisted of sc injections of saline (40 mL/kg/day) from days 3 to 7 post-TBI and the antibiotic enrofloxacin (10 mg/kg/day), given orally in the drinking water from days 2 to 14 post-TBI.
This study comprised four test groups, each consisting of 12 rats (Table 7). Rats received a single sc injection of vehicle solution (10 mM sodium phosphate, 4% mannitol, 1% sucrose pH 6.2) or an HGF triple combination (TC) at 24+4/−0 hr post-irradiation. […] Morbidity and survival of the animals were measured over time. Rats were euthanized if their body condition reached IACUC criteria for euthanasia or if their blood urea nitrogen (BUN) was measured at or above 120 mg/mL, which is an indicator if severe kidney damage. Euthanized animals are classified as non-survivors. Death prior to day 40 in this model typically occurs as a result of hematopoietic failure (H-ARS) or gastrointestinal injury (GI-ARS). Death between days 40 and 90 typically occurs as a result of lung damage, particularly pneumonitis. Death between days 90 and 150 typically occurs as a result of kidney damage (nephropathy). Morbidity at Day 40, 90 and 150 were chosen as representative times for death due to H-ARS, lung damage, and a combination of lung damage and kidney damage, respectively.

8.3 Gy irradiated mice = settings: cited from earlier work; for 48-day survival vs water: 8.3 Gy
plasma ACE activity = biological target: T1, plasma ACE activity (Mus musculus, UniProt P09470); settings: all 3 doses: 10, 30, or 90 mg/kg sc twice per day; cited from earlier work
T1 construct: host or cells: plasma of perindopril-treated mice (endogenous enzyme)
T1 sequence (P09470 35-1237 limits assumed): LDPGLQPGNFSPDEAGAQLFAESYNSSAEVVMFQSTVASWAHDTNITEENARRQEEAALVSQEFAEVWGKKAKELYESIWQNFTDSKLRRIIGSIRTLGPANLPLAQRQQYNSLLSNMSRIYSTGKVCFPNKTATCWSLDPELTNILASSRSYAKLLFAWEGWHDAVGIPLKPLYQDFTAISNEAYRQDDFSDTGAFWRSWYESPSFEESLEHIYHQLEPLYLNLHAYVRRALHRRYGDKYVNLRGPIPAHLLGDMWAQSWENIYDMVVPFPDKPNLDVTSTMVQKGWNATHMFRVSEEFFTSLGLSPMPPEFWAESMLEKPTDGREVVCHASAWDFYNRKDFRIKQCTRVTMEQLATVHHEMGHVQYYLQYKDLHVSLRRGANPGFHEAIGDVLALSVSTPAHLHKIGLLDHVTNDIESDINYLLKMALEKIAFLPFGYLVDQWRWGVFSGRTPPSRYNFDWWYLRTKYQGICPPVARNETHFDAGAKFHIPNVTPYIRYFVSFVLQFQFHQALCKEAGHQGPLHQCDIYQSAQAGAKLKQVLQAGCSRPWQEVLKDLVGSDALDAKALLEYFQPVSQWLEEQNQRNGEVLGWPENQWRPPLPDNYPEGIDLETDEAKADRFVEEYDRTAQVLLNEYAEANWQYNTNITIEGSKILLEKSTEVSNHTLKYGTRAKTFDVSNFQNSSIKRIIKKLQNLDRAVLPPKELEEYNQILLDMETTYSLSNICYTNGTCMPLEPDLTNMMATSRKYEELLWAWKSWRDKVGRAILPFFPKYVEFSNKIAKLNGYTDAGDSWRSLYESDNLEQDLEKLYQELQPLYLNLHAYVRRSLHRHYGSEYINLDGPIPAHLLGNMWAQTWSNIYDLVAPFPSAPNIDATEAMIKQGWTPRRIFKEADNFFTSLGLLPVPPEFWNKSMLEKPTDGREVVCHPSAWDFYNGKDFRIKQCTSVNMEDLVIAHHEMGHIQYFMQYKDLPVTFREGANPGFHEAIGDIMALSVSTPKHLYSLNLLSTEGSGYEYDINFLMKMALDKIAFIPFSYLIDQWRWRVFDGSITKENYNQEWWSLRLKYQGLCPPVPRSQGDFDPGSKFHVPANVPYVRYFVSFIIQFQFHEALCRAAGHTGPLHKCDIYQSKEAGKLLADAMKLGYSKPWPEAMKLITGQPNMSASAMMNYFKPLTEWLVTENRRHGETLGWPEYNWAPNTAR

LD95/30 irradiated mice = experiment: Mouse ARS survival assay, LD95/30 (927 cGy), Example 1; type: in vivo; settings: LD95/30 (927 cGy) TBI, single sc injection 24 h post-irradiation; for % 30-d survival: PEG IL-11 0.3 mg/kg, PEG-G-CSF 1 mg/kg, PEG muGM-CSF 1 mg/kg, 40 mice/group
Procedure: The efficacy of three individual HGFs and all possible combinations of the 3 proteins to increase 30 day survival of lethally irradiated mice was tested at an LD95/30 radiation dose (a dose of radiation expected to cause death to 95% of an exposed population within 30 days). […] Male and female mice (Mus musculus, C57BL/6 strain), aged 10-12 weeks upon study initiation, were used for these studies. There were 40 animals per treatment group, 50% males and 50% females. A dose of radiation equal to the LD95/30 was delivered as a single uniform total body dose (TBD) of gamma radiation from a ^137Cs radiation source (GammaCell 40; Nordion International, Kanata, Ontario, Canada) at an exposure rate of 98.575-100.3±5.01 cGy/minute. Pilot studies determined the LD95/30 dose of radiation to be 927 cGy. […] Each group of mice irradiated together in the same irradiation pie was roughly divided among all groups to ensure that each group received the same irradiation exposure conditions. After irradiation mice were randomized to one of the Test Article or Control Article groups. Mice were provided acidified water (pH 2.0-3.0) in bottles and fed certified commercial extruded laboratory animal chow (HARLAN 2018SXC) throughout the study. On day 4 post-exposure, mice were provided acidified autoclaved water in bottles and also in wetted chow (HARLAN 2018SXC) in a petri dish set in the bottom of the cage. Mice were monitored for survival once per day until signs of early euthanasia appear, then twice per day until day 30. Mice meeting predetermined euthanasia criteria were euthanized.
Complete Blood Cell Counts (CBCs) with differential and peripheral smears were performed at baseline (pre-irradiation) and on days 10, 20, 25, and 30 post-TBI. Two randomly selected mice/group in different cages were bled on day −3 to day −1 prior to TBI for a total of 12 baseline CBCs. Four randomly selected mice/group were bled on days 10, 20, 25, and 30 post-TBI. When possible, the same number of males and females in each group and in separate cages were selected for bleeding. […]

[3] = test system: LD65/30 irradiated one year old mice; experiment: Mouse ARS survival assay in one year old mice, 10 Gy (LD65/30), Example 4; type: in vivo; settings: single sc injection 24 h post-TBI
Excerpt: One year old mice are a model for geriatric humans, which often respond differently to radiation exposure and drugs. One year old mice were exposed to different doses of radiation to construct a radiation dose response curve. […] The LD50/30 for one year old mice was 959 cGy, compared to 853 cGy for 12 week old mice. […] Other study details were as described in Example 1 and in Plett et al. (Plett, P A, et al. (2012) Establishing a murine model of the Hematopoietic Syndrome of the Acute Radiation Syndrome. Health Physics 103: 343-355; Plett, P. A., et al. (2014) PEGylated G-CSF (BBT-015), GM-CSF (BBT-007), and IL-11 (BBT-059) analogs enhance survival and hematopoietic cell recovery in a mouse model of the Hematopoietic Syndrome of the Acute Radiation Syndrome. Health Physics Journal 106: 7-20). Mice received one sc injection of the individual test proteins or all possible combinations of the test proteins 24+4/−0 hours post-TBI. Doses of the drugs administered were 1 mg/kg for PEG-G-CSF, 1 mg/kg for PEG-murine GM-CSF, and 0.3 mg/kg for PEG-IL-11.

irradiated mice = experiment: Mouse ARS survival assay, PEG-muGM-CSF, 853 or 872 cGy, Example 5; type: in vivo; settings: for % 30-d survival: listed as PEG-muGM-CSF, 1 mg/kg; for # survivors/total mice: 30 days
Procedure: At the higher 872 cGy radiation dose, 70% of mice treated once with PEG-muGM-CSF at 24 h post-TBI were still alive at 30 days, compared to 10% of vehicle-treated mice.

LD65/30 irradiated mice = experiment: Mouse ARS survival assay, LD65/30 (872 cGy), Example 10; type: in vivo; settings: single sc injection 24 h post-irradiation
Procedure: The efficacy of three individual HGFs and all possible combinations of the 3 proteins to increase 30 day survival of lethally irradiated mice was tested at an LD65/30 radiation dose (a dose of radiation expected to cause death to 65% of an exposed population within 30 days). This experiment was performed as described in Example 1 except that the radiation dose used was 872 cGy and there were 20 mice per test group (10 males/10 females). The three HGFs were the same ones used in Example 1.

lethally irradiated mice = settings: single sc injection; cited from earlier work
[4] = Lisinopril Day 7 to Day 50, mean ± SD, 8 rats
[5] = sc 30 mg/kg twice per day for 4 days starting 48 hours before irradiation
[6] = 853 cGy, 1 mg/kg single sc at 24 h post-TBI
[7] = 872 cGy, 1 mg/kg single sc at 24 h post-TBI

Molecule: C[C@H](CS)C(=O)N1CCC[C@H]1C(=O)O [Captopril]
- 30-day survival (8.25 Gy-irradiated mice; captopril 0.55 g/L in drinking water from day 1 to day 30 post-TBI, genestein (if given) 200 mg/kg sc 24 h pre-TBI): 45%
- 30-day survival (8.25 Gy-irradiated mice; captopril from day 0 (1 h post-TBI) to day 30, genestein (if given) 200 mg/kg sc 24 h pre-TBI): 55%
- 30-day survival (7.5 Gy-irradiated mice; captopril 0.55 g/L in drinking water from day −7 until Day 0): 0%
- 30-day survival (7.5 Gy-irradiated mice; captopril from day 0 (1 hour post-TBI) until Day 30 post-TBI): 100%
- 30-day survival (7.5 Gy-irradiated mice; captopril from day 1 (24 h) post-TBI until Day 7 post-TBI): 85%
- 30-day survival (7.5 Gy-irradiated mice; captopril from day −7 prior to TBI until Day 30 post-TBI): 15%
- 30-day survival (7 Gy-irradiated rats): 24%

Molecule: NCCCC[C@H](N[C@@H](CCc1ccccc1)C(=O)O)C(=O)N1CCC[C@H]1C(=O)O [Lisinopril]
- BUN Day 120, median (20th-80th percentile) (irradiated rats [1]): 23 (20-24) * mg/dL
- BUN Day 150, median (20th-80th percentile) (irradiated rats [1]): 25 (22-27) ** mg/dL
- Cardiac Output (irradiated rats [2]; [4]): 170.1 ± 36.4 mL/min
- End Systolic Volume (irradiated rats [2]; [4]): 0.125 ± 0.04 mL
- End-Diastolic Volume (irradiated rats [2]; [4]): 0.585 ± 0.08 mL
- Left Ventricle Internal Diameter systole (irradiated rats [2]; [4]): 0.364 ± 0.03 cm
- Left Ventricle Mass (irradiated rats [2]; [4]): 0.919 ± 0.04 grams
- Left Ventricle Posterior Wall diastole (irradiated rats [2]; [4]): 0.109 ± 0.01 cm
- Left Ventricular Internal Dimension (diastole) (irradiated rats [2]; [4]): 0.57 ± 0.17 cm
- Stroke volume (irradiated rats [2]; [4]): 0.460 ± 0.06 mL
- radiation-induced changes to heart parameters (irradiated rats [2]; Lisinopril on days 7 to 50): prevented or reduced radiation-induced changes
- Survival (%) Day 40 (lethally irradiated rats): 100%
- Survival (%) Day 150 (lethally irradiated rats): 92%
- Survival (%) Day 90 (lethally irradiated rats; listed as Vehicle + Lisinopril): 92%
- Survival (%) Day 90 (lethally irradiated rats; listed as Vehicle plus Lisinopril): 100%

Molecule: CCC[C@H](N[C@@H](C)C(=O)N1[C@H](C(=O)O)C[C@@H]2CCCC[C@@H]21)C(=O)OCC [perindopril]
- 48-day survival vs water (8.3 Gy irradiated mice; sc 10 mg/kg twice per day for 4 days starting 48 hours before irradiation): did not significantly improve
- 48-day survival vs water (8.3 Gy irradiated mice; [5]): did significantly improve survival
- 48-day survival vs water (8.3 Gy irradiated mice; sc 90 mg/kg twice per day for 4 days starting 48 hours before irradiation): did significantly improve survival
- 30-day survival versus water (8.3 Gy irradiated mice; [5]): improved 30-day survival
- inhibition of plasma ACE activity (plasma ACE activity): 100%

B1: PEG GM-CSF: the murine BBT-007 GM-CSF homolog T3C modified with a 40 kDa-PEG (protein, UniProt P01587 18-141, looked up, variant T3C)
Granulocyte-macrophage …: APCRSPITVTRPWKHVEAIKEALNLLDDMPVTLNEEVEVVSNEFSFKKLTCVQTRLKIFEQGLRGNFTKLKGALNMTASYYQTYCPPTPETDCETQVTTYADFIDSLKTFLTDIPFECKKPGQK
modifications: 40 kDa PEG
notes: the murine BBT-007 GM-CSF homolog T3C modified with a 40 kDa-PEG
- # survivors/total mice (LD95/30 irradiated mice; 30 days): 13/40
- % 30-d survival (LD95/30 irradiated mice): 32.5%
- % 30-d survival (LD95/30 irradiated mice; listed as PEG-GM-CSF): 33%
- # survivors/total mice ([3]; 30 days): 11/20
- % 30-d survival ([3]; PEG IL-11 0.3 mg/kg, PEG-G-CSF 1 mg/kg, PEG muGM-CSF 1 mg/kg): 55%
- % of mice that survived 30 days, pooled data from the two radiation doses (irradiated mice; 853 and 872 cGy pooled, 1 mg/kg single sc at 24 h post-TBI): 77.5%
- % 30-d survival (irradiated mice; [6]): 85%
- % 30-d survival (irradiated mice; [7]): 70%
- # survivors/total mice (irradiated mice; [6]): 17/20
- # survivors/total mice (irradiated mice; [7]): 14/20
- hematopoietic recovery (CBC) vs vehicle (irradiated mice; day 20 post-TBI, 853 and 872 cGy): accelerated hematopoietic recovery
- # survivors/total mice (LD65/30 irradiated mice; 30 days): 14/20
- % 30-d survival (LD65/30 irradiated mice; PEG IL-11 0.3 mg/kg, PEG-G-CSF 1 mg/kg, PEG muGM-CSF 1 mg/kg, 20 mice/group): 70%

B2: muGM-CSF: non-long-acting murine GM-CSF (protein, UniProt P01587 18-141, looked up)
Granulocyte-macrophage …: APTRSPITVTRPWKHVEAIKEALNLLDDMPVTLNEEVEVVSNEFSFKKLTCVQTRLKIFEQGLRGNFTKLKGALNMTASYYQTYCPPTPETDCETQVTTYADFIDSLKTFLTDIPFECKKPGQK
- 30-day survival of lethally irradiated mice (lethally irradiated mice): does not improve 30-day survival
